Patent US8986696B2, “Trans-capsular administration of p38 map kinase inhibitors into orthopedic joints” (DePuy Mitek, Inc., priority 2007, dated 2015)

System: rabbit anterior cruciate ligament transection (ACLT) model of osteoarthritis
Assay: ACLT model pilot study, JNJ 3026582 (Example VI)
Type: in vivo
Protocol: New Zealand white rabbits (male, six to eight pounds) were anesthetized with ketamine (17 mg/kg) and xylazine (2.5 mg/kg). Supplementation was given during surgery, if needed, with an additional intramuscular injection of ketamine (35 mg/kg) and xylazine (5 mg/kg). The animals were given buprenorphine (0.01-0.05 mg/kg) for analgesia via a subcutaneous injection. The buprenorphine was administered every twelve hours for seventy-two hours. After induction of anesthesia, the right leg was clipped free of hair using electric animal clippers. The area around the site of surgery was scrubbed with chlorhexidine diacetate, rinsed with alcohol, dried, and painted with an aqueous iodophor solution of 1% available iodine and surgery was prepared using aseptic technique. In the right limb of each animal, the anterior cruciate ligament (ACL) was transected. A medial parapatellar incision was made and the patella was dislocated. The knee was flexed and the ACL visualized. A scalpel blade was positioned behind the ACL and brought anteriorly, thereby cutting the ACL while protecting the posterior cruciate ligament. The patella was returned to the normal anatomic position. The wound was closed in layers.
Following surgery, the animals were left untreated for six weeks. After six weeks, a series of five injections of the test compound were injected intra-articularly once weekly.
The animals were euthanized six weeks after initiation with an intravenous injection of pentobarbital (60 mg/kg). […] Immediately following euthanasia, gross observations of the knee joints were made and any abnormality was recorded. The joints were analyzed for disease state in the trochlear groove, the femoral condyles and the tibial plateau. Pathological assessments were performed on the sectioned tissue. Condylar structure, cellularity, presence of GAG and presence of cartilage were evaluated.
Sterile formulations of JNJ 3026582 (RWJ 67657) were prepared by gamma irradiation (1.5 mRAD) on dry ice. DMSO was sterile filtered and the remaining formulations were prepared aseptically. Specifically, 11.5 mg of JNJ 3026582 (RWJ 67657) was dissolved in 4 mL DMSO and the solution was thoroughly mixed with 5 mL of ARTHREASE® (Lot: 11840812) (Biotechnology General (Israel) Ltd.). The final concentration of JNJ 3026582 (RWJ 67657) in the formulation was 1.3 μg/μL and was considered the high dose. The mid dose was made by a 1:10 dilution of the high dose. The low dose was created in the same fashion as the mid dose i.e., by a 1:10 dilution of the mid dose.
A total of four rabbits (n=4) underwent ACLT of the right limb according to the ACLT model described above.
As discussed above, each formulation was injected once per week for five weeks. 160 μI was injected each time via a 26G (gauge) needle. The vehicle for the formulation was ARTHREASE® (Bio-Technology General (Israel) Ltd.).
At the time of sacrifice, the following parameters were evaluated grossly (the scale follows in parenthesis):
Each parameter was given a score. The combination of all parameters gave a Total Score. A higher score indicates more damage to the joint. The most clinically relevant parameters are discussed in detail below.

## OCCC#Cc1nc(-c2ccc(F)cc2)c(-c2ccncc2)n1CCCc1ccccc1 [JNJ 3026582 (RWJ 67657), 4-[4-(4-fluorophenyl)-1-(3-phenylpropyl)-5-(4-pyridinyl)-1H-imidazol-2-yl]-3-butyn-1-ol]
High 50 μg/kg
  Appearance of Meniscus Lateral, mean score: 2.00
  Appearance of Meniscus Medial, mean score: 2.25
  Appearance of Patella, mean score: 1.25
  Femoral Condyle Presence of Clefts, mean score: 0
  Tibial Plateau (Lateral) # of Osteophytes, mean score: 2.00
  Tibial Plateau (Lateral) Depth of Erosion, mean score: 2.06
  Tibial Plateau (Lateral) Presence of Clefts, mean score: 0
  Tibial Plateau (Lateral) Surface Area Erosion, mean score: 2.50
  Tibial Plateau (Medial) # of Osteophytes, mean score: 1.63
  Tibial Plateau (Medial) Depth of Erosion, mean score: 1.94
  Tibial Plateau (Medial) Presence of Clefts, mean score: 0
  Tibial Plateau (Medial) Surface Area Erosion, mean score: 2.50
  Trochlear Groove # of Osteophytes, mean score: 3.00
  Trochlear Groove Erosion of Cartilage, mean score: 1.25
  Trochlear Groove Osteophyte Size, mean score: 3.00
  Trochlear Groove Thickening, mean score: 0.25
Low 0.5 μg/kg
  Appearance of Meniscus Lateral, mean score: 1.25
  Appearance of Meniscus Medial, mean score: 1.25
  Appearance of Patella, mean score: 0.50
  Femoral Condyle Presence of Clefts, mean score: 0
  Tibial Plateau (Lateral) # of Osteophytes, mean score: 1.75
  Tibial Plateau (Lateral) Depth of Erosion, mean score: 2.13
  Tibial Plateau (Lateral) Presence of Clefts, mean score: 0
  Tibial Plateau (Lateral) Surface Area Erosion, mean score: 2.00
  Tibial Plateau (Medial) # of Osteophytes, mean score: 1.50
  Tibial Plateau (Medial) Depth of Erosion, mean score: 0.50
  Tibial Plateau (Medial) Presence of Clefts, mean score: 0
  Tibial Plateau (Medial) Surface Area Erosion, mean score: 0.25
  Trochlear Groove # of Osteophytes, mean score: 3.00
  Trochlear Groove Erosion of Cartilage, mean score: 1.00
  Trochlear Groove Osteophyte Size, mean score: 3.00
  Trochlear Groove Thickening, mean score: 0.50
Mid 5 μg/kg
  Appearance of Meniscus Lateral, mean score: 1.00
  Appearance of Meniscus Medial, mean score: 2.5
  Appearance of Patella, mean score: 1.38
  Femoral Condyle Presence of Clefts, mean score: 0
  Tibial Plateau (Lateral) # of Osteophytes, mean score: 2.25
  Tibial Plateau (Lateral) Depth of Erosion, mean score: 0.88
  Tibial Plateau (Lateral) Presence of Clefts, mean score: 0
  Tibial Plateau (Lateral) Surface Area Erosion, mean score: 2.25
  Tibial Plateau (Medial) # of Osteophytes, mean score: 2.00
  Tibial Plateau (Medial) Depth of Erosion, mean score: 1.13
  Tibial Plateau (Medial) Presence of Clefts, mean score: 0
  Tibial Plateau (Medial) Surface Area Erosion, mean score: 2.00
  Trochlear Groove # of Osteophytes, mean score: 3.00
  Trochlear Groove Erosion of Cartilage, mean score: 1.63
  Trochlear Groove Osteophyte Size, mean score: 3.00
  Trochlear Groove Thickening, mean score: 0.75
High dose 50 μg/kg
  All Cartilage Effects (0-38), average score: 19.19
  All Condylar Effects (0-18), average score: 8.69
  All Meniscal Effects (0-6), average score: 4.25
  Total Score (0-59), average: 34.31
  lateral femoral condyle % surface area erosion, average score: 2.5
  medial femoral condyle % surface area erosion, average score: 2.25
Low dose 0.5 μg/kg
  All Cartilage Effects (0-38), average score: 12.75
  All Condylar Effects (0-18), average score: 6.38
  All Meniscal Effects (0-6), average score: 2.50
  Total Score (0-59), average: 25.00
  lateral femoral condyle % surface area erosion, average score: 1.23
  medial femoral condyle % surface area erosion, average score: 1.5
Mid dose 5 μg/kg
  All Cartilage Effects (0-38), average score: 14.50
  All Condylar Effects (0-18), average score: 5.88
  All Meniscal Effects (0-6), average score: 3.50
  Total Score (0-59), average: 29.63
  lateral femoral condyle % surface area erosion, average score: 0.75
  medial femoral condyle % surface area erosion, average score: 1.63
